Experimental data as given in patent EP0325762B1, “Macrocyclic chelating agents and chelates thereof” (BRACCO S.p.A., priority 1987, dated 1989).

Legend:
mouse = experiment: Determination of LD50 in the mouse by intravenous administration; format: in vivo; conditions: male and female mice, Strain: Crl:CDl(ICR)BR, range in parentheses
Excerpt: Determination of LD₅₀ in the mouse by intravenous administration of the compounds of the present invention. In table II are reported, as non-limiting examples, the LD₅₀ values for compounds A and B of the present invention, in comparison with GdCl₃ and with Gd/DTPA neutralized with N-methylglucamine.

[1] = Determination of relaxivity (longitudinal R1 by Inversion Recovery, transverse R2 by Carr-Purcell-Meiboom-Gill sequence, MINISPEC PC 120 BRUKER); format: physicochemical; conditions: 20 MHz (proton), 39°C, pH 7.3, 0 to 5 mM, water; for R₁: longitudinal relaxivity; for R₂: transverse relaxivity
Description: Determination of the relaxivity of the compounds of the present invention.
Longitudinal relaxivity (R₁) measurements were calculated using the "Inversion Recovery" sequence with an 8 point minimum and a 3 parameter fit, according to the program provided for the MINISPEC […] BRUKER instrument, by which measurements were taken.
Transverse relaxivity (R₂) measurements were calculated using the sequence of Carr, Purcell, Meiboom and Gill, according to the program provided for the MINISPEC 120 BRUKER instrument, by means of which measurements were taken, adjusting the apparatus in such a way as to observe the decay of the signal to about 1/3 of the starting value, with a score number higher or equal to 10 and a 2 parameter fit.
In table I, R₁ and R ₂ values calculated for compounds A and B in comparison with Gd/DTPA neutralized with N-methylglucamine, are reported as non-limiting examples.

C[NH2+]C[C@H](O)[C@@H](O)[C@H](O)[C@H](O)CO.O=C([O-])CN1CCN(CC(=O)[O-])CCN(C(COCc2ccccc2)C(=O)[O-])CCN(CC(=O)[O-])CC1.[Gd+3] (stereo not shown) [A, Gd^(3+)/2-[1,4,7,10-tetraaza-4,7,10-tri(carboxymethyl)-cyclododecane-1-yl]-3-benzyloxypropionic acid, neutralized with N-methylglucamine]
LD₅₀ in the mouse* in mmol/kg - intravenous (mouse): 8.8 (7.79 - 9.94) mmol/kg | R₁ ([1]; solvent 0.154 M NaCl (0.9%)): 4.15 ± 0.01 mM/s | R₂ ([1]; solvent 0.154 M NaCl (0.9%)): 5.67 ± 0.02 mM/s

C[NH2+]C[C@H](O)[C@@H](O)[C@H](O)[C@H](O)CO.O=C([O-])CN1CCN(CC(=O)[O-])CCN(C(CO)C(=O)[O-])CCN(CC(=O)[O-])CC1.[Gd+3] (stereo not shown) [B, Gd^(3+)/2-[1,4,7,10-tetraaza-4,7,10-tri(carboxymethyl)-cyclododecane-1-yl]-3-hydroxypropionic acid, neutralized with N-methylglucamine]
LD₅₀ in the mouse* in mmol/kg - intravenous (mouse): 13.1 (12.2 - 14.1) mmol/kg | R₁ ([1]; solvent 0.154 M NaCl (0.9%)): 3.72 ± 0.01 mM/s | R₂ ([1]; solvent 0.154 M NaCl (0.9%)): 5.06 ± 0.01 mM/s

CNC[C@H](O)[C@@H](O)[C@H](O)[C@H](O)CO.CNC[C@H](O)[C@@H](O)[C@H](O)[C@H](O)CO.O=C([O-])CN(CCN(CC(=O)[O-])CC(=O)O)CCN(CC(=O)[O-])CC(=O)O.[Gd+3] [Gd/DTPA, reference compound]
LD₅₀ in the mouse* in mmol/kg - intravenous (mouse): 4.8 (4.47 - 5.16) mmol/kg | R₁ ([1]; solvent 0.154 M (0.9%)): 4.08 ± 0.01 mM/s | R₂ ([1]; solvent 0.154 M (0.9%)): 5.15 ± 0.02 mM/s

[Cl][Gd]([Cl])[Cl] [GdCl₃, reference compound]
LD₅₀ in the mouse* in mmol/kg - intravenous (mouse): 0.28 (0.24 - 0.32) mmol/kg
